Here are results for 9 molecules from article PMC3303745, “Elucidation of the Rotavirus NSP4-Caveolin-1 and -Cholesterol Interactions Using Synthetic Peptides” (Journal of Amino Acids, 2012).

The nature of data set [1]: Circular dichroism, percent α-helix of single peptides. Type of data set: physicochemical. The settings on record: CD, from molar ellipticity at 222 nm, mean ± SD, n = 4; for Percent α-helix, 50% TFE: peptide 15–35 μM in 50% trifluoroethanol; for Percent α-helix, 1 mM SUV: peptide 15–35 μM with 1 mM SUV (55 : 35 : 10, POPC/cholesterol/DOPS); for Percent α-helix, Aqueous Buffer: peptide 15–35 μM, 10 mM potassium phosphate buffer pH 7.4.

Data set [2] concerns the target T1, NSP4_112-140 (Rotavirus A, UniProt P04512). The format is physicochemical.
The subject of data set [3] is RV-infected MDCK cells. The data set can be described thus: Treatment of RV-infected MDCK cells with cholesterol-altering drugs, NSP4 transport by immunofluorescence. Type of data set: cell-based. Particulars: RV-infected MDCK cells (MOI 2, 12 hpi), treated in triplicate at recommended effective dose; stained with anti-NSP4_150-175 and anti-rabbit-IgG-FITC; compared to untreated infected cells. Here is the method:
MDCK cells were infected with RV at a multiplicity of infection (MOI) of 2 and incubated for 12 hpi. The cells were washed and treated in triplicate with the cholesterol altering drugs, fillipin [40], and nystatin [41] exactly as described. Chlorpromazine and nocodazole were utilized as negative and positive controls, respectively. Cells were fixed with methanol : acetone (1 : 1) at −20°C for 10 min, blocked with 5% dry milk for 20 min, incubated with anti-NSP4_150-175 and anti-rabbit-IgG-FITC, and examined under a UV microscope (Zeiss). The cell surface carefully was observed and the presence or absence of fluorescence carefully noted. Comparisons also were made to untreated cells. Primary and secondary antibody controls were negative. To ensure the lack of drug toxicity, a separate set of cells were treated and then stained with trypan blue.

The conditions of data set [4]: cited from earlier work.
Data set [5] concerns the target T1, NSP4_112-140. The format is binding.
The target of data set [6] is T2, Cy3-N-Cav_(19-40) (caveolin-1 aa 19-40, Cy3-labelled) (not fully specified).
T2 construct: also called Cy3-Cav_(19-40); N-caveolin-1_(19-40)
T2 peptide: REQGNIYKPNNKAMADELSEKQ
Kind of data set: other fluorescence titration. Particulars: both partners purified.

Several values for one entry are separate records, joined by “and”; a condition that tells them apart may be missing. Equal entries are not always repeated.

Turning to “FEDVIAEPEGTHS [Cav68-80, caveolin-1 central region peptide aa 68–80, negative control]”, in data set [1], the “Percent α-helix, 50% TFE” value is 23.1% and 24.4 ± 0.8%; the “Percent α-helix, 1 mM SUV” value is listed as 21.4 ± 2.0%; the “Percent α-helix, Aqueous Buffer” value is reported as 23.4 ± 0.9%. For the same molecule, in data set [2], the “% helical content, Observed, 1 mM SUV” value is on record as 31.3 ± 0.2%; the “% helical content, Observed, 50% TFE” value is 45.9 ± 2.8%; the “% helical content, Observed, Aqueous buffer” value stood at 24.2 ± 0.3%; the “% helical content, Theoretical, 1 mM SUV” value turned out to be 37.5 ± 1.9%. For the same molecule, in data set [2], the “% helical content, Theoretical, 50% TFE” value is given as 49.8 ± 1.8% and the “% helical content, Theoretical, Aqueous buffer” value is recorded as 23.9 ± 0.7%.
In the case of “EAVGKIFSNVRINLQKEI [C-Cav161-178, caveolin-1 C-terminal peptide aa 161–178]”, in data set [1], the “Percent α-helix, 50% TFE” value is reported as 57.4 ± 4.4%; the “Percent α-helix, 1 mM SUV” value was found to be 42.5 ± 10.6%; the “Percent α-helix, Aqueous Buffer” value was 43.4 ± 3.8%. For the same molecule, in data set [2], the “% helical content, Observed, 1 mM SUV” value is 51.9 ± 2.4%; the “% helical content, Observed, 50% TFE” value is reported as 44.2 ± 10.6 %; the “% helical content, Observed, Aqueous buffer” value came to 25.0 ± 1.7 %; the “% helical content, Theoretical, 1 mM SUV” value amounted to 49.5 ± 6.2%. Further, in data set [2], the “% helical content, Theoretical, 50% TFE” value worked out at 67.8 ± 3.2% and the “% helical content, Theoretical, Aqueous buffer” value is on record as 35.3 ± 1.6%.
`CN(C)CCCN1c2ccccc2Sc2ccc(Cl)cc21` [Chlorpromazine]: the “Results: NSP4 transport to the cell surface” value (“Results: NSP4 transport” below) in data set [3] is reported as “Normal NSP4 transport to the PM”.
On to `CC(C)CCC[C@@H](C)[C@H]1CC[C@H]2[C@@H]3CC=C4C[C@@H](O)CC[C@]4(C)[C@H]3CC[C@]12C` [cholesterol], for which the “critical micellar concentration (CMC)” value in data set [4] was 25 to 40 nM.
For `COC(=O)Nc1nc2ccc(C(=O)c3cccs3)cc2[nH]1` [Nocodazole], in data set [3], the “Results: NSP4 transport” value is on record as “Disrupted NSP4 transport”.
Regarding “SGGKYVDSEGHLYTVPIRE [N-Cav2-20, caveolin-1 N-terminal peptide aa 2–20]”, in data set [1], the “Percent α-helix, 50% TFE” value was 16.5 ± 0.9%; the “Percent α-helix, 1 mM SUV” value came out at 18.5 ± 1.9%; the “Percent α-helix, Aqueous Buffer” value amounted to 18.9 ± 2.8%. Also, in data set [2], the “% helical content, Observed, 1 mM SUV” value worked out at 34.7 ± 6.0%; the “% helical content, Observed, 50% TFE” value was 46.3 ± 7.2%; the “% helical content, Observed, Aqueous buffer” value amounted to 21.7 ± 0.8%; the “% helical content, Theoretical, 1 mM SUV” value came out at 37.7 ± 1.9%. In data set [2], the “% helical content, Theoretical, 50% TFE” value worked out at 47.6 ± 1.8% and the “% helical content, Theoretical, Aqueous buffer” value stood at 23.6 ± 2.6%. Moreover, in data set [5], the “fold increase in affinity in presence of SUV over absence of membranes” value was ~3 fold.
With `C[C@@H]1[C@H](O)[C@@H](C)/C=C/C=C/CC/C=C/C=C/C=C/C=C/C(O[C@H]2O[C@H](C)[C@@H](O)[C@H](N)[C@@H]2O)CC2O[C@](O)(CC(O)C(O)CCC(O)CC(O)CC(O)CC(=O)O[C@H]1C)CC(O)C2C(=O)O` (stereo partly shown) [Nystatin], the “Results: NSP4 transport” value in data set [3] was “Disrupted NSP4 transport”.
Take `CCCCC[C@@H](O)[C@H]1C(=O)O[C@H](C)[C@@H](O)/C=C/C=C/C=C/C=C/C=C(\C)[C@@H](O)C[C@H](O)C[C@H](O)C[C@H](O)C[C@H](O)C[C@H](O)C[C@@H]1O` [Fillipin]: in data set [3], the “Results: NSP4 transport” value was “Disrupted NSP4 transport”.
A word on the Kd: it is the equilibrium constant for the complex coming apart. A higher Kd goes with a looser complex. For the molecule MIDKLTTREIEQVELLKRIYDKLTVQTTG (also called NSP4 (aa 112-140)) [NSP4_(112-140) peptide (rotavirus nonstructural protein 4, aa 112-140)], the Kd in data set [6] was 40 nM.
